# Measurements published in patent US7307081B2, “Piperidine derivatives useful as CCR5 antagonists” (priority 2002, dated 2007).
# Tested on: HIV-1 luciferase reporter virus (ADA-Luc-FL, YU-2-Luc-FL, HxB-Luc-FL) in U87-CD4-CCR5 cells
# Assay: Luciferase Replication Assay (HIV replication)
# Type: cell-based
# Conditions: Human immunodeficiency virus 1, U87/CD4/CCR5, 72 h, read-out: HIV Replication (Luciferase) IC50 nM, U87-CD4-CCR5 cells, replication-competent luciferase reporter virus, cultures incubated 3 days
# Protocol: Luciferase Replication Assay:
# Plasmids encoding the full length genome of HIV-1 pNL-4-Luc with the gp 120 V-3 loop replaced by the Bgl II fragment of HIV-1 ADA, YU-2 or HxB (ADA-Luc-FL, YU-2-Luc-FL and HxB-Luc-FL) are obtained from Dr. Susan Pontow (Washington University, St. Louis Mo.). Replication-competent luciferase reporter virus stocks are generated by transfection of plasmids into 293T cells using Superfect (Qiagen) or Mirus transfection reagents. Viral stocks are collected 48 hours following transfection and titered for luciferase production on U-87-CCR5 or CXCR4 cells. U87-CD4-CCR5 cells (10^4/ well) are plated in 96-well cell culture plates and incubated overnight. Media is removed and replaced with 50 μl of fresh culture media (DMEM, 10% FCS) and 50 μl of compound diluted in culture medium. Cells are incubated with compound at 37° C. for 1 hour. The resultant supernatant is removed and replaced with 20 μl of media containing compound and infected with an equal volume of diluted or undiluted virus stock at 37° C. for 3-4 hours. The cells are washed once with DMEM, and 200 μl of media containing compound is added. The cultures are incubated for 3 days, the cells lysed in luciferase lysis buffer (Promega, Madison, Wis.) and transferred to Immulon plates (Dynex Technologies, Chantilly Va.). An equal volume of luciferase substrate (Promega, Madison Wis.) is added to lysates and the plates read immediately in a Wallac Luminometer. Fifty and ninety percent inhibitory concentrations are determined using GraphPad PRISM software.
row,SMILES,IC50 [nM]
1,Cc1ncnc(C)c1C(=O)N1CCC(C)(N2CCN(C(Cc3ccccc3)C3CCCN(S(=O)(=O)C4CC4)C3)[C@@H](C)C2)CC1 (mixture of isomers) [Example 1],2
2,COc1ccc(CN2CCCC(C(Cc3ccccc3)N3CCN(C4(C)CCN(C(=O)c5c(C)ncnc5C)CC4)C[C@@H]3C)C2)cc1 (mixture of isomers) [Example 2],25
3,Cc1ncnc(C)c1C(=O)N1CCC(C)(N2CCN(C(Cc3ccccc3)C3CCCN(S(=O)(=O)c4cccc(Cl)c4)C3)[C@@H](C)C2)CC1 (mixture of isomers) [Example 3],2
4,Cc1ncnc(C)c1C(=O)N1CCC(C)(N2CCN(C(Cc3ccccc3)C3CCCNC3)[C@@H](C)C2)CC1 (mixture of isomers) [Example 4],4
5,Cc1ncnc(C)c1C(=O)N1CCC(C)(N2CCN([C@@H](c3cccc(F)c3)C3CCN(S(=O)(=O)C4CC4)C3)[C@@H](C)C2)CC1 (mixture of isomers) [Example 11],0.3
6,Cc1ncnc(C)c1C(=O)N1CCC(C)(N2CCN(C(c3ccccc3)C3CCCN(S(C)(=O)=O)C3)[C@@H](C)C2)CC1 (stereo partly shown) [Example 7],0.5
7,COc1ccc(CN2CCCC([C@H](c3ccccc3)N3CCN(C4(C)CCN(C(=O)c5c(C)ncnc5C)CC4)C[C@@H]3C)C2)cc1 (stereo partly shown) [Example 8],1.6
8,Cc1ncnc(C)c1C(=O)N1CCC(C)(N2CCN([C@@H](c3ccccc3)C3CCCNC3)[C@@H](C)C2)CC1 (stereo partly shown) [Example 9],11
9,Cc1ncnc(C)c1C(=O)N1CCC(C)(N2CCN(C(CC3CCN(S(=O)(=O)C4CC4)CC3)c3cccc(F)c3)[C@@H](C)C2)CC1 (stereo partly shown) [Example 10],3
10,Cc1ncnc(C)c1C(=O)N1CCC(C)(N2CCN([C@@H](c3cccc(F)c3)C3CN(S(=O)(=O)C4CC4)C3)[C@@H](C)C2)CC1 [Example 12],1
11,Cc1ncnc(C)c1C(=O)N1CCC(C)(N2CCN([C@@H](c3cccc(F)c3)C3CN(S(=O)(=O)c4ccccc4)C3)[C@@H](C)C2)CC1 [Example 13],0.7
12,Cc1ncnc(C)c1C(=O)N1CCC(C)(N2CCN([C@@H](c3cccc(F)c3)C3CN(S(C)(=O)=O)C3)[C@@H](C)C2)CC1 [Example 14],2
13,Cc1ncnc(C)c1C(=O)N1CCC(C)(N2CCN([C@@H](c3cccc(F)c3)C3CN(C(=O)C4CC4)C3)[C@@H](C)C2)CC1 [Example 15],5
14,Cc1ncnc(C)c1C(=O)N1CCC(C)(N2CCN([C@@H](Cc3ccccc3)C3CN(S(=O)(=O)C4CC4)C3)[C@@H](C)C2)CC1 [Example 16],4
15,Cc1ncnc(C)c1C(=O)N1CCC(C)(N2CCN([C@@H](Cc3ccccc3)C3CN(S(=O)(=O)c4ccccc4)C3)[C@@H](C)C2)CC1 [Example 17],0.4
16,Cc1ncnc(C)c1C(=O)N1CCC(C)(N2CCN([C@@H](Cc3ccccc3)C3CN(S(C)(=O)=O)C3)[C@@H](C)C2)CC1 [Example 18],17
17,Cc1ncnc(C)c1C(=O)N1CCC(C)(N2CCN([C@@H](Cc3ccccc3)C3CN(C(=O)C4CC4)C3)[C@@H](C)C2)CC1 [Example 19],13

# Same assay, conditions: read-out: HIV Replication (Luciferase) IC50 nM; U87-CD4-CCR5 cells, replication-competent luciferase reporter virus, cultures incubated 3 days
row,SMILES,IC50 [nM]
1,Cc1ncnc(C)c1C(=O)N1CCC(C)(N2CCN(C(c3ccccc3)C3CCCN(S(=O)(=O)C4CC4)C3)[C@@H](C)C2)CC1 (stereo partly shown) [Example 5],15
2,Cc1ncnc(C)c1C(=O)N1CCC(C)(N2CCN(C(c3ccccc3)C3CCCN(S(=O)(=O)C4CC4)C3)[C@@H](C)C2)CC1 (stereo partly shown) [Example 6],0.7
